Test results published in patent US20090258883A1, “1H-Indole-Pyridinecarboxamide and 1H-Indole-Piperidinecarboxamide Compounds” (LES LABORATOIRES SERVIER, priority 2005, published 2009).
Marks after values point to notes of the source that are not given here.

Molecular target: 5HT receptors (type 5HT2A) (Homo sapiens, UniProt P28223)
Test: Affinity for receptors, displacement of labelled specific ligand: 5HT2A
Format: binding
Details: concentration 10^−5 M

Chain of 5HT receptors (type 5HT2A) (P28223 whole entry): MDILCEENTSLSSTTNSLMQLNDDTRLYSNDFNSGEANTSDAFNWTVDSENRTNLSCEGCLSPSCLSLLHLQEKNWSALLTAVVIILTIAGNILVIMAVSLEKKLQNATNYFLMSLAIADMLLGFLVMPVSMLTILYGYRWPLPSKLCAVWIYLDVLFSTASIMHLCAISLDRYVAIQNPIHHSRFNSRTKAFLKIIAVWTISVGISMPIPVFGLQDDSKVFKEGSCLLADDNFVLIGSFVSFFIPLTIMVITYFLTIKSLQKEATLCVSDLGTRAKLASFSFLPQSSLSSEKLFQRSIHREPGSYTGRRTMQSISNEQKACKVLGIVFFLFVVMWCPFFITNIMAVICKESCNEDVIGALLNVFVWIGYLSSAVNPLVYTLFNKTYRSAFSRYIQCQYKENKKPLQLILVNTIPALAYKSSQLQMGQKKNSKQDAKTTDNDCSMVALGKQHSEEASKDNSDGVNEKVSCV

Row | SMILES | inhibition at 10 µM [%]
1 | C=CCN1CCCC(C(=O)Nn2ccc3cc(Cl)ccc32)C1 (stereo not shown) [Example 12, 1-Allyl-N-(5-chloro-1H-indol-1-yl)piperidine-3-carboxamide] | < 10
2 | CN1CCN(CCN2CCCC(C(=O)Nn3ccc4ccccc43)C2)CC1 (stereo not shown) [Example 25, N-(1H-indol-1-yl)-1-[2-(4-methyl-1-piperazinyl)ethyl]-3-piperidine-carboxamide] | 14

Same assay, conditions: concentration 10^−7 M

Row | SMILES | inhibition at 0.1 µM [%]
3 | C=CCN1CCCC(C(=O)Nn2ccc3cc(Cl)ccc32)C1 (stereo not shown) [Example 12, 1-Allyl-N-(5-chloro-1H-indol-1-yl)piperidine-3-carboxamide] | < 10
4 | CN1CCN(CCN2CCCC(C(=O)Nn3ccc4ccccc43)C2)CC1 (stereo not shown) [Example 25, N-(1H-indol-1-yl)-1-[2-(4-methyl-1-piperazinyl)ethyl]-3-piperidine-carboxamide] | 12

System: tyrosine hydroxylase (TH) protein
Test: Induction of tyrosine hydroxylase (TH) in LC, SN and VTA of the mouse brain
Format: in vivo, Balb/C mouse
Details: LC
From the text: A search is made among the compounds for those which are capable of bringing about an increase in the tyrosine hydroxylase (TH) protein in the locus coeruleus (LC), substantia nigra (SN) and ventral tegmental area (VTA) of the brain of the Balb/C mouse. The animals used are consanguinal male mice of the pure Balb/C strain (Charles River Laboratories) aged 6 weeks at the time of treatment.
The mice are given a single injection, by the intraperitoneal route, of the compound under test, dissolved in 0.04M HCl solution (corresponding control: 0.04M HCl), if the compound is sufficiently soluble, or in olive oil 90%/DMSO 10% (corresponding control: olive oil 90%/DMSO 10%) for compounds that are insoluble in an aqueous medium. The volume injected is 100 μl. The test groups comprise 10 animals.
Three days after the injection of each compound, all the animals are sacrificed by decapitation. The brains are removed and then frozen in an isopentane solution at −30° C. for 45 seconds and subsequently stored at −80° C.
Serial coronal sections 20 microns thick are then taken using a cryomicrotome. Each structure of interest is then sampled along the posterior-anterior axis of the brain by taking sections at 80-micron spacings in the case of the LC and at 80- or 160-micron spacings in the case of the VTA and SN. The limits of those structures are those described in the atlas of Franklin and Paxinos. The total proteins of each of those sections are transferred by direct collection of the sections to a nitrocellulose filter (Millipore). The amounts of TH present in each sample are measured by immunochemistry, fluorimetric detection and image analysis.

Row | SMILES | TH induction in the LC, in words
5 | C=CCN1CCCC(C(=O)Nn2ccc3cc(Cl)ccc32)C1 (stereo not shown) [Example 12, 1-Allyl-N-(5-chloro-1H-indol-1-yl)piperidine-3-carboxamide] | without increasing expression of the protein

Same assay, conditions: LC section 1 (posterior-to-anterior), i.p. 20 mg/kg, three days after single injection, relative to mean value of control group

Row | SMILES | amount of TH in LC section 1 [%]
6 | C=CCN1CCCC(C(=O)Nn2ccc3cc(Cl)ccc32)C1 (stereo not shown) [Example 12, 1-Allyl-N-(5-chloro-1H-indol-1-yl)piperidine-3-carboxamide] | 57

Same assay, conditions: LC section 2, i.p. 20 mg/kg, three days after single injection, relative to mean value of control group

Row | SMILES | amount of TH in LC section 2 [%]
7 | C=CCN1CCCC(C(=O)Nn2ccc3cc(Cl)ccc32)C1 (stereo not shown) [Example 12, 1-Allyl-N-(5-chloro-1H-indol-1-yl)piperidine-3-carboxamide] | 70

Same assay, conditions: LC section 3, i.p. 20 mg/kg, three days after single injection, relative to mean value of control group

Row | SMILES | amount of TH in LC section 3 [%]
8 | C=CCN1CCCC(C(=O)Nn2ccc3cc(Cl)ccc32)C1 (stereo not shown) [Example 12, 1-Allyl-N-(5-chloro-1H-indol-1-yl)piperidine-3-carboxamide] | 80

Same assay, conditions: LC section 4, i.p. 20 mg/kg, three days after single injection, relative to mean value of control group

Row | SMILES | amount of TH in LC section 4 [%]
9 | C=CCN1CCCC(C(=O)Nn2ccc3cc(Cl)ccc32)C1 (stereo not shown) [Example 12, 1-Allyl-N-(5-chloro-1H-indol-1-yl)piperidine-3-carboxamide] | 110

Same assay, conditions: LC section 5, i.p. 20 mg/kg, three days after single injection, relative to mean value of control group

Row | SMILES | amount of TH in LC section 5 [%]
10 | C=CCN1CCCC(C(=O)Nn2ccc3cc(Cl)ccc32)C1 (stereo not shown) [Example 12, 1-Allyl-N-(5-chloro-1H-indol-1-yl)piperidine-3-carboxamide] | 114

Same assay, conditions: LC section 6, i.p. 20 mg/kg, three days after single injection, relative to mean value of control group

Row | SMILES | amount of TH in LC section 6 [%]
11 | C=CCN1CCCC(C(=O)Nn2ccc3cc(Cl)ccc32)C1 (stereo not shown) [Example 12, 1-Allyl-N-(5-chloro-1H-indol-1-yl)piperidine-3-carboxamide] | 92

Same assay, conditions: LC section 7, i.p. 20 mg/kg, three days after single injection, relative to mean value of control group

Row | SMILES | amount of TH in LC section 7 [%]
12 | C=CCN1CCCC(C(=O)Nn2ccc3cc(Cl)ccc32)C1 (stereo not shown) [Example 12, 1-Allyl-N-(5-chloro-1H-indol-1-yl)piperidine-3-carboxamide] | 95

Same assay, conditions: LC section 8, i.p. 20 mg/kg, three days after single injection, relative to mean value of control group

Row | SMILES | amount of TH in LC section 8 [%]
13 | C=CCN1CCCC(C(=O)Nn2ccc3cc(Cl)ccc32)C1 (stereo not shown) [Example 12, 1-Allyl-N-(5-chloro-1H-indol-1-yl)piperidine-3-carboxamide] | 82

Same assay, conditions: LC section 9, i.p. 20 mg/kg, three days after single injection, relative to mean value of control group

Row | SMILES | amount of TH in LC section 9 [%]
14 | C=CCN1CCCC(C(=O)Nn2ccc3cc(Cl)ccc32)C1 (stereo not shown) [Example 12, 1-Allyl-N-(5-chloro-1H-indol-1-yl)piperidine-3-carboxamide] | 98

Same assay, conditions: LC section 10, i.p. 20 mg/kg, three days after single injection, relative to mean value of control group

Row | SMILES | amount of TH in LC section 10 [%]
15 | C=CCN1CCCC(C(=O)Nn2ccc3cc(Cl)ccc32)C1 (stereo not shown) [Example 12, 1-Allyl-N-(5-chloro-1H-indol-1-yl)piperidine-3-carboxamide] | 94

Same assay, conditions: LC section 11, i.p. 20 mg/kg, three days after single injection, relative to mean value of control group

Row | SMILES | amount of TH in LC section 11 [%]
16 | C=CCN1CCCC(C(=O)Nn2ccc3cc(Cl)ccc32)C1 (stereo not shown) [Example 12, 1-Allyl-N-(5-chloro-1H-indol-1-yl)piperidine-3-carboxamide] | 26

Same assay, conditions: LC total, i.p. 20 mg/kg, three days after single injection, relative to mean value of control group

Row | SMILES | amount of TH, LC, total [%]
17 | C=CCN1CCCC(C(=O)Nn2ccc3cc(Cl)ccc32)C1 (stereo not shown) [Example 12, 1-Allyl-N-(5-chloro-1H-indol-1-yl)piperidine-3-carboxamide] | 90

Same assay, conditions: SN

Row | SMILES | TH induction in the SN, in words
18 | C=CCN1CCCC(C(=O)Nn2ccc3cc(Cl)ccc32)C1 (stereo not shown) [Example 12, 1-Allyl-N-(5-chloro-1H-indol-1-yl)piperidine-3-carboxamide] | induce TH in the SN

Same assay, conditions: VTA

Row | SMILES | TH induction in the VTA, in words
19 | C=CCN1CCCC(C(=O)Nn2ccc3cc(Cl)ccc32)C1 (stereo not shown) [Example 12, 1-Allyl-N-(5-chloro-1H-indol-1-yl)piperidine-3-carboxamide] | without increasing expression of the protein

Same assay, conditions: substantia nigra, single i.p. injection, relative to mean value of control group

Row | SMILES | TH induction in the SN
20 | C=CCN1CCCC(C(=O)Nn2ccc3cc(Cl)ccc32)C1 (stereo not shown) [Example 12, 1-Allyl-N-(5-chloro-1H-indol-1-yl)piperidine-3-carboxamide] | 122* %

Same assay, conditions: ventral tegmental area, single i.p. injection, relative to mean value of control group

Row | SMILES | TH induction in the VTA [%]
21 | C=CCN1CCCC(C(=O)Nn2ccc3cc(Cl)ccc32)C1 (stereo not shown) [Example 12, 1-Allyl-N-(5-chloro-1H-indol-1-yl)piperidine-3-carboxamide] | 95

System: not listed separately
Test: Predicted metabolic stability, mouse hepatic microsomes
Format: in vitro ADME
Details: 10^−7 M, mouse hepatic microsomes 0.33 mg of prot/ml, NADPH
Protocol: (§1) The predicted metabolic stability is tested by incubation of the compounds at a concentration of 10^−7M in the presence of mouse, rat or human hepatic microsomes (0.33 mg of prot/ml). After addition of NADPH (nicotinamide adenine dinucleotide phosphate, reduced form), samples are taken at 0, 5, 15, 30 and 60 minutes. The enzymatic reaction is stopped using methanol (V/V). The protein is precipitated by centrifugation and the supernatant is analysed by LC-MS-MS.

Row | SMILES | % metabolic stability predicted using hepatic microsomes, Mouse [%]
22 | CN1CCN(CCN2CCCC(C(=O)Nn3ccc4ccccc43)C2)CC1 (stereo not shown) [Example 25, N-(1H-indol-1-yl)-1-[2-(4-methyl-1-piperazinyl)ethyl]-3-piperidine-carboxamide] | 85

Molecular target: dopaminergic receptors (type D1) (Homo sapiens, UniProt P21728)
Sequence (P21728 whole entry): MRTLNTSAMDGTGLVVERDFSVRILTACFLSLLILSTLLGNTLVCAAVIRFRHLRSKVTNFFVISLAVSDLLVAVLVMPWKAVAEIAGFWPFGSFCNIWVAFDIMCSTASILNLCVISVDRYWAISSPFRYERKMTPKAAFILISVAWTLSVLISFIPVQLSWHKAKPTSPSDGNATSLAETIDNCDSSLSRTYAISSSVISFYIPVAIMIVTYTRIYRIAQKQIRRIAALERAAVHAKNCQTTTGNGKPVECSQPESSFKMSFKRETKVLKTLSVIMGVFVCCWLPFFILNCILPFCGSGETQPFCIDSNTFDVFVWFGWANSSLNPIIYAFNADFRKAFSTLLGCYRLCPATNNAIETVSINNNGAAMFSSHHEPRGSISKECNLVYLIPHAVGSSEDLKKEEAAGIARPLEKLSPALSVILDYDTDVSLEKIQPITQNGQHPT
Test: Affinity for receptors, displacement of labelled specific ligand: D1
Format: binding
Details: concentration 10^−5 M

Row | SMILES | inhibition at 10 µM [%]
23 | C=CCN1CCCC(C(=O)Nn2ccc3cc(Cl)ccc32)C1 (stereo not shown) [Example 12, 1-Allyl-N-(5-chloro-1H-indol-1-yl)piperidine-3-carboxamide] | < 10
24 | CN1CCN(CCN2CCCC(C(=O)Nn3ccc4ccccc43)C2)CC1 (stereo not shown) [Example 25, N-(1H-indol-1-yl)-1-[2-(4-methyl-1-piperazinyl)ethyl]-3-piperidine-carboxamide] | < 10

Same assay, conditions: concentration 10^−7 M

Row | SMILES | inhibition at 0.1 µM [%]
25 | C=CCN1CCCC(C(=O)Nn2ccc3cc(Cl)ccc32)C1 (stereo not shown) [Example 12, 1-Allyl-N-(5-chloro-1H-indol-1-yl)piperidine-3-carboxamide] | < 10
26 | CN1CCN(CCN2CCCC(C(=O)Nn3ccc4ccccc43)C2)CC1 (stereo not shown) [Example 25, N-(1H-indol-1-yl)-1-[2-(4-methyl-1-piperazinyl)ethyl]-3-piperidine-carboxamide] | < 10

System: not listed separately
Test: Predicted metabolic stability, human hepatic microsomes
Format: in vitro ADME
Details: 10^−7 M, human hepatic microsomes 0.33 mg of prot/ml, NADPH
Protocol: as §1

Row | SMILES | % metabolic stability predicted using hepatic microsomes, Human [%]
27 | CN1CCN(CCN2CCCC(C(=O)Nn3ccc4ccccc43)C2)CC1 (stereo not shown) [Example 25, N-(1H-indol-1-yl)-1-[2-(4-methyl-1-piperazinyl)ethyl]-3-piperidine-carboxamide] | 63

System: muscarinic (M) receptors
Test: Affinity for receptors, displacement of labelled specific ligand: muscarinic
Format: binding
Details: concentration 10^−5 M
Protocol: (§2) The affinity for receptors is determined according to customary methods of relations between the specific ligand and the receptor, which may be of animal origin or a human recombinant. The affinity was determined by the method of displacement of the labelled specific ligand by the compound under test and expressed by the dissociation constant KI. The receptor affinity was accordingly studied for 28 conventional receptors.

Row | SMILES | % inhibition M [%]
28 | C=CCN1CCCC(C(=O)Nn2ccc3cc(Cl)ccc32)C1 (stereo not shown) [Example 12, 1-Allyl-N-(5-chloro-1H-indol-1-yl)piperidine-3-carboxamide] | 51
29 | CN1CCN(CCN2CCCC(C(=O)Nn3ccc4ccccc43)C2)CC1 (stereo not shown) [Example 25, N-(1H-indol-1-yl)-1-[2-(4-methyl-1-piperazinyl)ethyl]-3-piperidine-carboxamide] | 27

System: sigma (σ) receptors (ligand: haloperidol)
Test: Affinity for receptors, displacement of labelled specific ligand: sigma
Format: binding
Details: concentration 10^−5 M
Protocol: as §2

Row | SMILES | % inhibition σ [%]
30 | C=CCN1CCCC(C(=O)Nn2ccc3cc(Cl)ccc32)C1 (stereo not shown) [Example 12, 1-Allyl-N-(5-chloro-1H-indol-1-yl)piperidine-3-carboxamide] | 85
31 | CN1CCN(CCN2CCCC(C(=O)Nn3ccc4ccccc43)C2)CC1 (stereo not shown) [Example 25, N-(1H-indol-1-yl)-1-[2-(4-methyl-1-piperazinyl)ethyl]-3-piperidine-carboxamide] | 100

Same assay, conditions: concentration 10^−7 M

Row | SMILES | % inhibition σ [%]
32 | C=CCN1CCCC(C(=O)Nn2ccc3cc(Cl)ccc32)C1 (stereo not shown) [Example 12, 1-Allyl-N-(5-chloro-1H-indol-1-yl)piperidine-3-carboxamide] | 18
33 | CN1CCN(CCN2CCCC(C(=O)Nn3ccc4ccccc43)C2)CC1 (stereo not shown) [Example 25, N-(1H-indol-1-yl)-1-[2-(4-methyl-1-piperazinyl)ethyl]-3-piperidine-carboxamide] | 17

Molecular target: dopaminergic receptors (type D2) (Homo sapiens, UniProt P14416)
Sequence (P14416 whole entry): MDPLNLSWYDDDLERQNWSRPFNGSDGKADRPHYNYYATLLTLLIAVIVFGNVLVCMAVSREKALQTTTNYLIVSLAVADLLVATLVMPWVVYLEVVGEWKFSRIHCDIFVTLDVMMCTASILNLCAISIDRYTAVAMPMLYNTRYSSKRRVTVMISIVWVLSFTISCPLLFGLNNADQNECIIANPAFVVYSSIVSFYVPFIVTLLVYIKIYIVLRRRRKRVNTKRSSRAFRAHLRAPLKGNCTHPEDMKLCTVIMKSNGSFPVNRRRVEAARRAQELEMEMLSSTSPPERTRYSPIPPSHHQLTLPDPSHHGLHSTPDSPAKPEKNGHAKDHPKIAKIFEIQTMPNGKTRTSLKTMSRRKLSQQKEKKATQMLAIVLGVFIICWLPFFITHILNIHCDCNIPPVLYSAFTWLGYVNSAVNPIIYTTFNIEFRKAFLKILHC
Test: Affinity for receptors, displacement of labelled specific ligand: D2
Format: binding
Details: concentration 10^−5 M

Row | SMILES | inhibition at 10 µM [%]
34 | C=CCN1CCCC(C(=O)Nn2ccc3cc(Cl)ccc32)C1 (stereo not shown) [Example 12, 1-Allyl-N-(5-chloro-1H-indol-1-yl)piperidine-3-carboxamide] | < 10
35 | CN1CCN(CCN2CCCC(C(=O)Nn3ccc4ccccc43)C2)CC1 (stereo not shown) [Example 25, N-(1H-indol-1-yl)-1-[2-(4-methyl-1-piperazinyl)ethyl]-3-piperidine-carboxamide] | < 10

Same assay, conditions: concentration 10^−7 M

Row | SMILES | inhibition at 0.1 µM [%]
36 | C=CCN1CCCC(C(=O)Nn2ccc3cc(Cl)ccc32)C1 (stereo not shown) [Example 12, 1-Allyl-N-(5-chloro-1H-indol-1-yl)piperidine-3-carboxamide] | < 10
37 | CN1CCN(CCN2CCCC(C(=O)Nn3ccc4ccccc43)C2)CC1 (stereo not shown) [Example 25, N-(1H-indol-1-yl)-1-[2-(4-methyl-1-piperazinyl)ethyl]-3-piperidine-carboxamide] | < 10
